Patent US20250114430A1, “MODIFIED PEPTIDOMIMETICS AND METHODS OF USE” (The University of North Carolina at Chapel Hill, priority 2021, published 2025)
No end group written: not given here.

Key:
[1] = system: E. coli LPS; test: E. coli LPS sepsis model, intravenous ELD607; format: in vivo, mice; conditions: LPS intraperitoneally
Protocol: We injected mice intraperitoneally with E. coli LPS, followed by 0.5 mg/kg ELD607 injected intravenously 1 h later.

[2] = system: mouse hepatitis virus (MHV-A59; a murine coronavirus); test: Murine coronavirus MHV-A59 infection; format: in vivo
Protocol: Mice were dosed intranasally with 10^6 PFU MHIV-A59 followed by vehicle (saline) or 1.0 mg/kg of ELD607 per mouse 4 d p.i. BAL and lungs were collected 6 d p.i.
ELD607 normalized leukocyte composition and viral loads in the airways after murine coronavirus infection. Coronaviruses are emerging pathogens with severe outcomes in the human population. Mice were infected with 10^6 PFU mouse hepatitis virus (MHV-A59; a murine coronavirus) intranasally. The mice were then dosed with 1.0 mg/kg ELD607 or vehicle intranasally 4 days p.i. and then 2 days after dosing with ELD607 (6 days p.i.), mice were sacrificed to collect BAL and lung homogenates.

[3] = system: immune cells from tracheal aspirates of ARDS/bacterial pneumonia patients; test: Thapsigargin-induced cytosolic Ca^2+ in immune cells from ARDS/bacterial pneumonia patients; format: cell-based, human; conditions: Fluo-4, 1 h exposure
Protocol: We next obtained tracheal aspirates from intubated ARDS/bacterial pneumonia patients. We immediately isolated immune cells from these samples and simultaneously loaded them with the Ca^2+ dye Fluo-4 and exposed them to vehicle, ELD607 or scrambled peptide for 1 h.

[4] = target: T1, Orai1/store operated Ca^2+ influx (Homo sapiens, UniProt Q96D31); test: Store operated Ca^2+ influx in HEK293T cells (Example 2); format: cell-based; conditions: a6 and ELD607 combined
T1 construct: Endogenous Orai1/store operated Ca^2+ influx have been extensively studied in HEK293T cells; endogenous in cells; host or cells: HEK293T
T1 sequence (Q96D31 whole entry): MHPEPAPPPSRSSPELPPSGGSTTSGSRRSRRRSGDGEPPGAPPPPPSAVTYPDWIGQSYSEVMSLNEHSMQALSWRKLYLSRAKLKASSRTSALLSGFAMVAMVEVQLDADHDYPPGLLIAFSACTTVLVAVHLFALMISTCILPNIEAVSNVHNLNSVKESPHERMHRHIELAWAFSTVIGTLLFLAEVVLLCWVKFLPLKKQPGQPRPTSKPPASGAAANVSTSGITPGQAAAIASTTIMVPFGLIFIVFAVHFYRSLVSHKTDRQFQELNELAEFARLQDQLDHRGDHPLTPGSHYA
Source text: Endogenous Orai1/store operated Ca^2+ influx have been extensively studied in HEK293T cells, so this cell type was used to understand ELD607-Orai1 interactions. […] Thapsigargin is a SERCA pump inhibitor that prevents uptake of cytosolic Ca^2+ into the endoplasmic reticulum. Thapsigargin is commonly used to stimulate Orai1/store operated Ca^2+ influx. […] Dynamic light scattering (DLS) was used to evaluate binding of ELD607 to peptides of Orai1 extracellular loops. […] Thus, it was concluded that ELD607 interacts with Orai1.

[5] = format: in vitro ADME, human
Source text: ELD607 is active in ARDS patient immune cells. Pulmonary neutrophilic inflammation and increased lung neutrophil elastase levels are common in ARDS patient lungs. We therefore evaluated whether ELD607 remained stable in BAL samples patients with ARDS caused by bacterial pneumonia. […] (FIG. 27, panel A).

[6] = 1.0 mg/kg intranasal 4 days p.i., read 6 days p.i.

Sequence: VHDIVNMLIRG [ELD607, VHDIVNMLIRG]
- blood macrophages ([1]; 0.5 mg/kg intravenously): significantly increased blood macrophages
- blood neutrophilia ([1]; 0.5 mg/kg intravenously): significantly reduced blood neutrophilia
- weight loss ([1]; 0.5 mg/kg intravenously 1 h later): significant prevented weight loss
- lung lymphocyte levels (B cells and T cells) [2, 6]: significantly reduced lung lymphocyte levels
- lung monocyte and macrophage levels [2, 6]: normalized lung monocyte and macrophage levels
- viral loads in the lungs and BAL ([2]; one dose 1.0 mg/kg): significantly reduced
- thapsigargin elevation of cytosolic Ca^2+ [3]: not after exposure to ELD607
- additivity of inhibitory effects of a6 and ELD607 on thapsigargin-induced elevations in cytosolic Ca^2+ [4]: not additive
- stability in ARDS BAL [5]: remained stable over 8 h
